ChEMBL document CHEMBL1159244, “New polyoxypregnane ester derivatives from Leptadenia hastata” (J Nat Prod, 1995)
Active and inactive are the calls of the source. No cut-off for these calls is given here.

Legend:
Raji [1] = test: Cytotoxicity against human Raji cells assessed as [methyl-3H]thymidine incorporation into DNA at 0.5 ug/ml after 24 hrs; assay type: functional, cell-based
Raji [2] = test: Cytotoxicity against human Raji cells assessed as [methyl-3H]thymidine incorporation into DNA at 1 ug/ml after 24 hrs; assay type: functional, cell-based

SMILES | Activity (Raji [1]) | Activity (Raji [2])
CO[C@H]1C[C@H](O[C@H]2CC[C@@]3(C)C(=CC[C@]4(O)[C@@H]3C[C@@H](OC(=O)c3ccccc3)[C@@]3(C)[C@]4(O)CC[C@@]3(O)[C@H](C)OC(=O)/C=C/c3ccccc3)C2)O[C@H](C)[C@H]1O[C@H]1C[C@@H](OC)[C@H](O)[C@@H](C)O1 | inactive | inactive
C[C@H](O)[C@]1(O)CC[C@@]2(O)[C@]1(C)[C@H](OC(=O)/C=C/c1ccccc1)C[C@@H]1[C@@]3(C)CC[C@H](O)CC3=CC[C@]12O | inactive | inactive
CC(=O)[C@]1(O)CC[C@@]2(O)[C@]1(C)[C@H](OC(=O)c1ccccc1)C[C@@H]1[C@@]3(C)CC[C@H](O)CC3=CC[C@]12O | inactive | inactive
CO[C@H]1C[C@H](O[C@H]2CC[C@@]3(C)C(=CC[C@]4(O)[C@@H]3C[C@@H](OC(=O)c3ccccc3)[C@@]3(C)[C@]4(O)CC[C@@]3(O)[C@H](C)OC(=O)/C=C/c3ccccc3)C2)O[C@H](C)[C@H]1O | inactive | inactive
C[C@H](OC(=O)c1ccccc1)[C@]1(O)CC[C@@]2(O)[C@]1(C)[C@H](OC(=O)c1ccccc1)C[C@@H]1[C@@]3(C)CC[C@H](O)CC3=CC[C@]12O | inactive | inactive
CC(=O)O[C@@H](C)[C@]1(O)CC[C@@]2(O)[C@]1(C)[C@H](OC(=O)c1cccnc1)C[C@@H]1[C@@]3(C)CC[C@H](O)CC3=CC[C@]12O | inactive | inactive
CC(=O)O[C@@H]1C[C@@H]2[C@@]3(C)CC[C@H](O)CC3=CC[C@@]2(O)[C@@]2(O)CC[C@@](O)(C(C)=O)[C@@]12C | inactive | inactive
C[C@H](OC(=O)c1cccnc1)[C@]1(O)CC[C@@]2(O)[C@]1(C)[C@H](OC(=O)/C=C/c1ccccc1)C[C@@H]1[C@@]3(C)CC[C@H](O)CC3=CC[C@]12O | inactive | inactive
CO[C@H]1C[C@H](O[C@H]2CC[C@@]3(C)C(=CC[C@]4(O)[C@@H]3C[C@@H](OC(=O)/C=C/c3ccccc3)[C@@]3(C)[C@]4(O)CC[C@@]3(O)[C@H](C)O)C2)O[C@H](C)[C@H]1O[C@H]1C[C@@H](OC)[C@H](O)[C@@H](C)O1 | inactive | inactive
C[C@H](OC(=O)/C=C/c1ccccc1)[C@]1(O)CC[C@@]2(O)[C@]1(C)[C@H](OC(=O)c1ccccc1)C[C@@H]1[C@@]3(C)CC[C@H](O)CC3=CC[C@]12O | inactive | inactive
CC(=O)O[C@@H]1C[C@@H]2[C@@]3(C)CC[C@H](O)CC3=CC[C@@]2(O)[C@@]2(O)CC[C@@](O)([C@H](C)O)[C@@]12C | inactive | inactive
CC(=O)[C@]1(O)CC[C@@]2(O)[C@]1(C)[C@H](OC(=O)/C=C/c1ccccc1)C[C@@H]1[C@@]3(C)CC[C@H](O)CC3=CC[C@]12O | inactive | inactive
CC(=O)O[C@@H](C)[C@]1(O)CC[C@@]2(O)[C@]1(C)[C@H](OC(=O)/C=C/c1ccccc1)C[C@@H]1[C@@]3(C)CC[C@H](O)CC3=CC[C@]12O | inactive | inactive
CC(=O)[C@]1(O)CC[C@@]2(O)[C@]1(C)[C@H](OC(=O)c1cccnc1)C[C@@H]1[C@@]3(C)CC[C@H](O)CC3=CC[C@]12O | inactive | inactive
